Several values for one entry are separate records, joined by “and”; a condition that tells them apart may be missing. Equal entries are not always repeated. Where two headings read alike, the source gives them in different places.
Columns and labels:
[1] = Ex vivo radiometabolite analysis in CD-1 mice
Description: Female adult CD-1 mice (25–42 g body weight) were used for radiometabolite analysis of [^18F]JHU94620-d4 (n = 2, 33 and 34 MBq) and [^18F]JHU94620-d8 (n = 3, 26–33 MBq) at 30 min after intravenous tail vein injection of the radiotracer to allow for the comparison of radiometabolite analysis of [^18F]JHU94620 (Moldovan et al. [2016]). The mice were immobilized by short isoflurane narcosis for the injection of the radiotracer in a restrainer and awakened mice were kept in an isolated cage until euthanisation by cervical dislocation under isoflurane narcosis. Male Wistar rats (n = 12, 613–794 g) were used for radiometabolite analysis of [^18F]JHU94620-d8 at different time points (5, 15, 30 and 60 min p.i.) after intravenous tail vein injection of the radiotracer (37–74 MBq) for the correction of the input function in pharmacokinetic analysis. Rats were kept under isoflurane narcosis (gas mixture: 2.5% isoflurane and O2) on a warmed plate until euthanization by decapitation of deep narcotized animals. Plasma samples were obtained by centrifugation with 5500 g of blood samples for 2 min at 4 °C. Resected tissues brain and spleen were kept on ice and minced for 3 × 20 s with adding 0.5 to 1 mL of 0.9% NaCl using a Precellys lysing kit and Minilys homogenizer (Bertin Technologies SAS, Montigny-le-Bretonneux, France).
The samples were further processed for subsequent radio-chromatographic analyses. Two consecutive extractions were performed in duplicates for plasma and brain determinations. Plasma, brain and spleen samples were added to the four time the volume of an ice-cold MeOH/H2O mixture (9:1, v/v). The samples were vortexed for 3 min, incubated on ice for 5 min and centrifuged at 8,600 g for 5 min. Supernatants were collected and the precipitates were re-dissolved in 100 µL of extraction solvent and the extraction procedure was repeated. The activities of supernatants and precipitates were measured in a γ-counter (1480 WIZARD, Perkin Elmer), and the extraction efficiencies were calculated as the ratio of radioactivity in the supernatant to the radioactivity in the original sample (supernatant + precipitate). The supernatants from both extractions were combined, concentrated at 70 °C under argon stream up to a remaining volume of 100 µL, and subsequently analysed by analytical radio-HPLC (method A or B).

CB2R [2] = target: T1, CB2R (Rattus norvegicus, UniProt Q9QZN9); test: Quantitative autoradiography, rat spleen cryosections; type: binding
T1 construct: from tissue; host or cells: rat spleen: cryosections in vitro, and spleen of living Wistar rats in PET
T1 sequence (Q9QZN9 1-360): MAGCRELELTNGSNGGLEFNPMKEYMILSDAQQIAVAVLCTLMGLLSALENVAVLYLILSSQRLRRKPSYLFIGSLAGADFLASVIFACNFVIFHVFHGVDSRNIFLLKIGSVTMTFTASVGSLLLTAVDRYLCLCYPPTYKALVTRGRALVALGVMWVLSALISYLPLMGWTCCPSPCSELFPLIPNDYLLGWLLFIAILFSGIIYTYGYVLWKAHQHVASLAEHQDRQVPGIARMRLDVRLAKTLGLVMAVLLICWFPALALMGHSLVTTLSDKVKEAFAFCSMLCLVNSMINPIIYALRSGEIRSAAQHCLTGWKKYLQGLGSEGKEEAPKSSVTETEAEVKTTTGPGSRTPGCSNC
Description: (§1) For quantitative autoradiography in different species, 10 µm cryosections from mouse, rat and piglet spleen were thawed, dried, and pre-incubated with incubation buffer for 10 min, dried under an airstream. Subsequently, the incubation buffer containing [^18F]JHU94620-d8 (59–137 GBq µmol^−1, 1.7–3.6 nM) was added alone or together with indicated concentrations of the reference compound. Additionally, to assess the non-specific binding of [^18F]JHU94620-d8 to cryosections GW405833 was added instead of the reference compound. After 90 min, cryosections were washed two times for 2 min with ice-cold 50 mM Tris HCl, pH7.4 and 10 s in ddH2O and subsequently dried under an airstream. For the calculation of the radioactivity concentration, 5 µl of five serial 1:2 dilutions of the incubation buffer with [^18F]JHU94620-d8 were air-dried on a microscopic slide. For binding studies in rat spleen cryosections by autoradiography with HLM-derived radiometabolites of [^18F]JHU94620-d8 obtained from the radiometabolite assay, the samples were added to the incubation buffer to a final activity concentration of 0.2 MBq mL^−1 and protocol was followed as described above. Subsequently, the slides were exposed to a phosphor imager plate. After scanning at high sensitivity and a 12.5 µm resolution with a CR35 Bio image plate scanner (Raytest Isotopenmessgeräte GmbH, Straubenhardt, Germany). The analyses of the autoradiographic images were performed with the AIDA 5.1 software (Elysia-Raytest, Angleur, Belgium) resulting in a resolution of 12.617 pixel × 12.616 pixel per µm^2 (1 voxel = 1592 µm^3 ≙ 1.59 10^–3 µg wet tissue) and inhibition curves were created with GraphPad Prism 9.5.1 (GraphPad Inc., La Jolla, CA).
The KD values were calculated with GraphPad Prism according to the modified Cheng-Prusoff method for homologous competitive binding studies, where the KD = Ki = IC50—[radioligand] and the Bmax = specific binding / [radioligand] / ((KD + [radioligand])) (Motulsky and Neubig [2000]), assuming a total protein content of 8.2% (1.3 10^–4 µg protein per voxel) in the spleen (Zaia et al. [2000]) or by determining the protein concentration of the cell membrane lysates using a BCA assay (Thermo Scientific, Braunschweig, Germany). The fractional occupancy defined as occupied binding sites per total binding sites is used to describe the binding fraction specifically bound to CB2R compared to unspecific binding, where [L] is the concentration of the ligand at the start of incubation.

CB2R [3] = target: T2, CB2R (Mus musculus, UniProt P47936); test: Quantitative autoradiography, mouse spleen cryosections; type: binding
T2 construct: from tissue; host or cells: mouse spleen cryosections
Description: as §1, with “CA). […]” for “CA).”

CB2R [4] = test: Quantitative autoradiography, pig spleen cryosections; type: binding; details: blocking with 10 µM GW405833 or self-blocking
Description: as §1, with “The analyses of the autoradiographic images were performed with the AIDA 5.1 software (Elysia-Raytest, Angleur, Belgium) resulting in a resolution of 12.617 pixel × 12.616 pixel per µm^2 (1 voxel = 1592 µm^3 ≙ 1.59 10^–3 µg wet tissue) and inhibition curves were created with GraphPad Prism 9.5.1 (GraphPad Inc., La Jolla, CA).” left out

hCB2R(D80N) = hCB2R(D80N) (Homo sapiens, UniProt P34972, D80N)
[5] = female, CD-1, mouse, in vivo, 30 min
[6] = female, Wistar, rat, in vivo, 60 min

T2 sequence (P47936 whole entry): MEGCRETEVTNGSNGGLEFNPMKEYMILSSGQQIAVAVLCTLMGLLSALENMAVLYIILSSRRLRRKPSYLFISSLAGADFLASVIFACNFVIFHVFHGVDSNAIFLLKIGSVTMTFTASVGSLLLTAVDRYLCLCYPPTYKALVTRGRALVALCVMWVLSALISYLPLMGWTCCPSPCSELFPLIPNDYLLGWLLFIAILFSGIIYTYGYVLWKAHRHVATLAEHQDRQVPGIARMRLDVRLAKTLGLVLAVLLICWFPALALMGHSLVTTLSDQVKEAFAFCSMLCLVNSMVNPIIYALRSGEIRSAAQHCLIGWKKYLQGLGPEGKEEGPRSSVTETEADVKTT
Chain of hCB2R(D80N) (P34972 whole entry D80N): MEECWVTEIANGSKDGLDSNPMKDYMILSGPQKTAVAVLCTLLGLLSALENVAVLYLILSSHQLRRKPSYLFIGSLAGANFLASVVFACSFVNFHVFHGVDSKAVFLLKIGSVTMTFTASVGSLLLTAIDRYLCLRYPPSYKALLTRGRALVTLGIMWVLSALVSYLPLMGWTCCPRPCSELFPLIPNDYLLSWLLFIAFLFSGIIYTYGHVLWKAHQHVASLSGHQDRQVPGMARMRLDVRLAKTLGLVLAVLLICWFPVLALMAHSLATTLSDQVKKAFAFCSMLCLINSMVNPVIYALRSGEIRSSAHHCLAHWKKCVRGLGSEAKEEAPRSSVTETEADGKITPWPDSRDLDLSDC

[2H]C([2H])([18F])C([2H])([2H])C([2H])([2H])C([2H])([2H])n1c(C)c(C)s/c1=N\C(=O)C1C(C)(C)C1(C)C [[^18F]JHU94620-d8]
percentage printed at the radiotracer peak of the representative radio-HPLC chromatogram (Mice) ([1]; CD-1, mouse, in vivo, 30 min): 80% | parent fraction in brain, higher compared to the non-deuterated isotopologue ([1]; CD-1 mice, brain, 30 min p.i.): 50% | parent fraction in brain ([1]; CD-1 mice, brain, 30 min p.i., mean ± SD): 0.72 ± 0.05 | in vivo metabolic stability (comparison in words) ([1]; female, CD-1, mouse, in vivo, 0.5 h): slightly superior to [^18F]JHU94620-d4 | parent fraction in blood plasma [1, 5]: 0.13 ± 0.04 | parent fraction in spleen [1, 5]: 0.87 ± 0.10 | Kd (CB2R [2]; KD values determined by autoradiography, rat and mouse spleen (range over both species)): 0.74 to 1.98 nM | Kd (CB2R [2]; KD, rat spleen cryosection, homologous displacement autoradiography, n = 3): 0.74 nM | specific binding to CB2R (CB2R [2]; rat spleen cryosections, blocking with 10 µM GW405833 or self-blocking): 48 ± 6% and 48% | Bmax (CB2R [2]; spleen of rats): 0.08 pmol mg^−1 protein | Kd (CB2R [3]): 1.98 nM | specific binding to CB2R (CB2R [3]; mouse spleen cryosections, blocking with 10 µM GW405833 or self-blocking): 40 ± 18% | Bmax (CB2R [3]; spleen of mice): 0.08 pmol mg^−1 protein | specific binding to CB2R (CB2R [4]): 22 ± 11% | BPND in the hCB2R(D80N) region (hCB2R(D80N); SRTM, cerebellar region as reference): 26 | reduction of AUC20-60min when normalized to the cerebellum (hCB2R(D80N); after injection of GW405833, compared to the control group): 61% | TAC peak, potential reference regions (contralateral and cerebellum) (hCB2R(D80N); female, Wistar, rat, in vivo): about 3 SUVmean | VT in the brain region bearing the hCB2R(D80N) overexpression (hCB2R(D80N); female, Wistar, rat, in vivo): 320 ± 135 mL ccm^−1 | VT in the other investigated brain regions (hCB2R(D80N); female, Wistar, rat, in vivo): 5.9-13.8 mL ccm^−1 | SUVmean in the cerebellar region at 60 min p.i. (hCB2R(D80N); [6]): 0.16 ± 0.03 SUVmean | SUVmean in the contralateral region at 60 min p.i. (hCB2R(D80N); [6]): 0.8 ± 0.3 SUVmean | AUC20-60min (CI95%), hCB2R D80N-to-Cerebellum (hCB2R(D80N); human, in vivo): 1128 (1058 to 1198) SUVr ∙ min | AUC20-60min (CI95%), hCB2R D80N-to-Contralateral (hCB2R(D80N); human, in vivo): 291 (226 to 355) SUVr ∙ min | AUC, Cerebellum (hCB2R(D80N); human, in vivo): 30 ± 4 SUV ∙ min | AUC, Contralateral (hCB2R(D80N); human, in vivo): 74 ± 16 SUV ∙ min | AUC, hCB2R(D80N) (hCB2R(D80N); human, in vivo): 412 ± 90 SUV ∙ min | AUC20-60min (CI95%), hCB2R D80N-to-Cerebellum (hCB2R(D80N); human, in vivo, iv, 5 mg/kg): 435 (367 to 502) SUVr ∙ min | AUC20-60min (CI95%), hCB2R D80N-to-Contralateral (hCB2R(D80N); human, in vivo, iv, 5 mg/kg): 272 (233 to 311) SUVr ∙ min
